Entries after “also recorded” stand apart in the source; their conditions may differ.
Assays:
[1] = test system: ALA and ALAME producing E. coli strain BL21 (DE3) T1r pBT10 pACYC:Duet[TAcv]; assay: Oxygen transfer rate (OTR) during biotransformation with various ion exchangers (Example 4); type: cell-based; settings: 150 mL lauric acid methyl ester with ion exchanger (10% w/w) added to the fermentation broth
Description: The biotransformation of lauric acid methyl ester to aminolauric acid methyl ester was tested in the 8-fold parallel fermentation system of DasGip with various ion exchangers.
1 L reactors were used for the fermentation. The pH probes were calibrated by means of a two-point calibration with standard solutions of pH 4.0 and pH 7.0. The reactors were filled with 300 mL water and were autoclaved for 20 min at 121° C., to ensure sterility. Then the pO2 probes were polarized overnight (for at least 6 h). On the next morning, the water was removed under the clean bench and was replaced with high-cell-density medium with 50 mg/L kanamycin and 34 mg/L chloramphenicol. Next the pO2 probes were calibrated with a single-point calibration (stirrer: 600 rpm/gassing: 10 sL/h air) and the feed, correcting-agent and induction-agent sections were cleaned by Clean-in-Place. For this, the hoses were rinsed with 70% ethanol, then with 1 M NaOH, then with sterile deionized water and finally were filled with the respective media.
The ALA and ALAME producing E. coli strain BL21 (DE3) T1r pBT10 pACYC:Duet[TAcv] was first grown from cryoculture in LB medium (25 mL in a 100 mL baffle flask) with 50 mg/L kanamycin and 34 mg/L chloramphenicol overnight at 37° C. and 200 rpm for approx. 18 h.
The 3 cultures were combined in a shaking flask and the optical density was determined as 7.2. For inoculating the reactors at an optical density of 0.1, in each case 4.2 mL was taken up in a 5 mL syringe and the reactors were inoculated by cannula through a septum.
The experiment carried out can be divided into two phases, growing, in which the cells are to reach a specified optical density, and the subsequent biotransformation, in which the expression of the genes necessary for the biotechnological processes of production of ALAME was induced. The pH values were adjusted on one side with ammonia (12.5%) to pH 6.8. During growing and biotransformation, the dissolved oxygen (DO) in the culture was controlled at 30% by means of the stirrer rotary speed and the gassing rate. Fermentation was carried out as fed batch, wherein feed start, 5 g/Lh glucose feed (500 g/L glucose with 1% MgSO4*7H2O and 2.2% NH4Cl), was triggered by a DO peak. […] Expression of transaminase was induced 2 h after feed start by the automatic addition of IPTG (1 mM). Induction of the alk-genes was effected by manual addition of DCPK (0.025% v/v) 10 h after feed start. The optical density of the culture broths was determined before the start of biotransformation.
The biotransformation phase started 14 h after feed start. For this, 150 mL of a mixture of lauric acid methyl ester and the respective ion exchanger (10% w/w) were added as batch to the fermentation broth. Di(2-ethylhexyl-)phosphoric acid (DEHPA), lauric acid, oleic acid, palmitic acid, palmitoleic acid, stearic acid and a mixture of free fatty acids from the saponification of globe thistle oil were used as ion exchangers. In order to make an amino group donor available for the transaminase, 10.7 mL of an alanine solution (125 g/L) was added to the fermentation broth simultaneously with addition of the organic phase. For sampling, 2 mL of fermentation broth was taken from the vessel and a portion of this was diluted 1/20 in an acetone-HCl mixture (c(HCl)=0.1 mol/L) and extracted. Samples were taken from all 8 reactors at 1.25 h, 3 h, 5 h, 20 h, 22 h and […] after the start of biotransformation. The oxygen transfer rate (OTR) and carbon transfer rate (CTR) were determined during the fermentation by exhaust gas analysis on the DasGip systems. The fermentation was ended 22 h after the start of biotransformation.

E. coli BL21(DE3) = assay: CFU determination, toxicity of liquid cation exchangers (Example 2); settings: for Number of CFUs after 22 or 24 h relative to t = 0 h: Escherichia coli
Excerpt: 50% DEHPA or lauric acid (15%), in each case dissolved in LAME and with equimolar or 25 mol % loading with ALAME, as liquid cation exchanger, was contacted with an E. coli BL21 (DE3) strain and the influence of these two compounds on the strain's ability to form colonies, expressed in CFUs, was investigated.

E. coli W3110 [2] = settings: Test 2, culture covered with equal volume of solvent
Description: First a preculture comprising 20 ml of LB medium in a 100-ml baffle flask was inoculated with a cryoculture of the corresponding strain. The culture was cultured overnight at 37° C. with shaking at 200 rpm and was used on the next day, to inoculate an identical main culture to an OD of 0.2. The main cultures (each 30 mL of LB medium) were then incubated further under the same conditions. At an OD of 0.4 to 0.5, the main culture was covered in each case with equal volumes (30 ml) of solvent and was then incubated further.
For determination of the number of CFUs (colony-forming units), in the next tests 0.1-ml samples were taken and were diluted in sterile 0.9% NaCl solution. Suitable dilution steps were plated out on LB-agar plates. After incubation at 34° C. overnight, the colonies that had formed were counted and the CFUs were determined.
In this case two different concentrations of oleic acid were used and the volume was adjusted by adding the corresponding amount of LAME (lauric acid methyl ester).
In this case various amounts of an unsaturated fatty acid were compared with an unsaturated fatty acid with respect to their toxicity when used as liquid cation exchanger. […] The volumes of the various cation exchangers were compared with LAME. The number of CFUs was determined at the start, after 4.5 h and after 24 h.

E. coli W3110 [3] = assay: CFU determination, toxicity of the solvent LAME (Example 1)
Description: Before the determination of CFUs could be undertaken, an LB plate (10 g/L peptone from casein, 5 g/L yeast extract, 10 g/L NaCl) was streaked with E. coli BW3110 and incubated for 24 h. In the evening of the next day, a preculture of this previously streaked plate was inoculated. […] On the next day the preculture with an OD600 of 0.2 was inoculated in 200 mL of M9 medium (Na2HPO4 6.79 g/L; KH2PO4 3.0 g/L; NaCl 0.5 g/L; NH4Cl 1 g/L; 1 mL/L trace element solution, pH 7.4. Trace element solution: HCl 37% (=455.8 g/L) 36.50 g/L; MnCl2*7H2O 1.91 g/L; ZnSO4*7H2O 1.87 g/L; Na-EDTA*2H2O (Titriplex III) 0.84 g/L; H3BO3 0.30 g/L; Na2MoO4*2H2O 0.25 g/L; CaCl2*2H2O 4.70 g/L; FeSO4*7H2O 17.80 g/L; CuCl2*2H2O 0.15 g/L) with 3% glucose (w/v) and incubated for approx. 20 h. After incubation of the main culture, the cells were harvested, centrifuged at 5258 g and 4° C. for 10 min and, with an OD600 of 30, were resuspended in 10 mL of 50 mM Kpi buffer at pH 7.4 (or 25 mM HEPES buffer pH 7.4, when CFU determinations with ALAME were carried out). Both buffer solutions used contained 5% glucose (w/v). Then the bacterial suspension was transferred to the shaking flasks and the solutions of the respective substances were added. After mixing by swirling the flask, 100 μL of the suspension was withdrawn by pipette and put into 900 μL of prepared sterile saline. This corresponded to sampling at time point t0. The mixtures were then incubated at 250 rpm and 30° C. The CFUs were determined over a period of 22 h. First the samples were taken at time points t0, t3, t6 and t22. For some mixtures another sampling time point t1.5 was added and furthermore another additional dilution series was plated out, in order to minimize deviations.
The OD600 was 60. The cells were resuspended in 10 mL Kpi buffer and then mixed in the flask with 5 mL LAME 98% (w/w). One dilution step per assay was plated out.

E. coli W3110 [4] = assay: CFU determination, lowering ALAME toxicity by contacting with a liquid cation exchanger (Example 3); type: cell-based; settings: ALAME 0.2% (w/v) dissolved in aqueous systems

CCCCCCCCCCCCCCCC(=O)O [palmitic acid]
course of the OTR after addition of the ion exchanger [1]: much shallower | toxicity to cells concluded from the OTR [1]: far less toxic

CCCCC(CC)COP(=O)(O)OCC(CC)CCCC (stereo not drawn) [DEHPA, di(2-ethylhexyl)phosphoric acid, reference compound]
course of the OTR after addition of the ion exchanger [1]: drops to 0 within a short time | toxicity to cells concluded from the OTR [1]: highly toxic to cells | Number of CFUs after 22 or 24 h relative to t = 0 h (E. coli BL21(DE3)): 0%

CC(C)CCCCCC(=O)O [Isononanoic acid]
Number of CFUs after 22 or 24 h relative to t = 0 h (E. coli W3110 [2]): 0% | Number of CFUs after 22 or 24 h relative to t = 0 h (E. coli BL21(DE3)): 0%

CCCCCCCCCCCCCCCCCC(=O)O [stearic acid]
course of the OTR after addition of the ion exchanger [1]: much shallower | toxicity to cells concluded from the OTR [1]: far less toxic

CCCCCCCCCCCC(=O)OC [LAME, lauric acid methyl ester]
percentage drop in the live cell count (E. coli W3110 [3]; 5 mL LAME 98% (w/w) with cells in 10 mL Kpi buffer, OD600 60, after 22 h): 30.3% | number of CFU/mL (E. coli W3110 [3]; 5 mL LAME 98% (w/w) with cells in 10 mL Kpi buffer, OD600 60, over a period of 6 h): remained constant | toxicity of LAME with respect to biotechnologically relevant microorganisms (E. coli W3110 [3]; compared with potassium phosphate buffer (Kpi) as negative control): does not have toxic action; also recorded: relatively low toxicity | tolerance by the strains used (E. coli BL21(DE3); preliminary tests): tolerated well

CCCCCCCCCCCC(=O)O [Lauric acid]
course of the OTR after addition of the ion exchanger [1]: intrusion of the OTR, but it is less pronounced | toxicity to cells concluded from the OTR [1]: far less toxic than DEHPA | Number of CFUs after 22 or 24 h relative to t = 0 h (E. coli BL21(DE3)): 1.2%

CCCCC(CC)C(=O)O (stereo not drawn) [2-Ethylhexanoic acid]
Number of CFUs after 22 or 24 h relative to t = 0 h (E. coli W3110 [2]): 0% | Number of CFUs after 22 or 24 h relative to t = 0 h (E. coli BL21(DE3)): 0%

COC(=O)CCCCCCCCCCCN [ALAME, 12-aminolauric acid methyl ester]
action on bacteria (E. coli W3110 [4]): bactericidal action

CCCCCCCC/C=C\CCCCCCCC(=O)O [oleic acid]
toxicity to cells concluded from the OTR [1]: even lower toxicity than the saturated fatty acids

CCCCCC/C=C\CCCCCCCC(=O)O [palmitoleic acid]
toxicity to cells concluded from the OTR [1]: even lower toxicity than the saturated fatty acids
